# From US9706777B2
# Tested on: Alternaria solani
# Test: Alternaria test (tomatoes)/preventive
# Details: 100 ppm a.i.; preventive spray on young tomato plants; evaluated 3 days after inoculation; 0% = untreated control, 100% = no disease
# Method: The degree of efficacy, expressed in % is denoted.
# In this case, the efficacy which was actually observed must be greater than the value for the expected efficacy (E) calculated from the abovementioned formula.
# After the spray coating has dried on, the plants are inoculated with an aqueous spore suspension of Alternaria solani. The plants are then placed in an incubation cabinet at approximately 20° C. and a relative atmospheric humidity of 100%.
# The test is evaluated 3 days after the inoculation.
smiles,measurement,value
"C#CCOc1ccc(CCNC(=O)C(OCC#C)c2ccc(Cl)cc2)cc1OC (stereo not shown) [F206 mandipropamid, mandipropamid]",Efficacy in % found,0%
